Each structure is given as a SMILES string.

From US20220356174A1, “PYRIDIN-2-ONE COMPOUNDS USEFUL AS SMARCA2 ANTAGONISTS” (Epizyme, Inc., priority 2018, published 2022) come the findings set out here.

Sequence of FL-SMARCA4 (P51532 whole entry): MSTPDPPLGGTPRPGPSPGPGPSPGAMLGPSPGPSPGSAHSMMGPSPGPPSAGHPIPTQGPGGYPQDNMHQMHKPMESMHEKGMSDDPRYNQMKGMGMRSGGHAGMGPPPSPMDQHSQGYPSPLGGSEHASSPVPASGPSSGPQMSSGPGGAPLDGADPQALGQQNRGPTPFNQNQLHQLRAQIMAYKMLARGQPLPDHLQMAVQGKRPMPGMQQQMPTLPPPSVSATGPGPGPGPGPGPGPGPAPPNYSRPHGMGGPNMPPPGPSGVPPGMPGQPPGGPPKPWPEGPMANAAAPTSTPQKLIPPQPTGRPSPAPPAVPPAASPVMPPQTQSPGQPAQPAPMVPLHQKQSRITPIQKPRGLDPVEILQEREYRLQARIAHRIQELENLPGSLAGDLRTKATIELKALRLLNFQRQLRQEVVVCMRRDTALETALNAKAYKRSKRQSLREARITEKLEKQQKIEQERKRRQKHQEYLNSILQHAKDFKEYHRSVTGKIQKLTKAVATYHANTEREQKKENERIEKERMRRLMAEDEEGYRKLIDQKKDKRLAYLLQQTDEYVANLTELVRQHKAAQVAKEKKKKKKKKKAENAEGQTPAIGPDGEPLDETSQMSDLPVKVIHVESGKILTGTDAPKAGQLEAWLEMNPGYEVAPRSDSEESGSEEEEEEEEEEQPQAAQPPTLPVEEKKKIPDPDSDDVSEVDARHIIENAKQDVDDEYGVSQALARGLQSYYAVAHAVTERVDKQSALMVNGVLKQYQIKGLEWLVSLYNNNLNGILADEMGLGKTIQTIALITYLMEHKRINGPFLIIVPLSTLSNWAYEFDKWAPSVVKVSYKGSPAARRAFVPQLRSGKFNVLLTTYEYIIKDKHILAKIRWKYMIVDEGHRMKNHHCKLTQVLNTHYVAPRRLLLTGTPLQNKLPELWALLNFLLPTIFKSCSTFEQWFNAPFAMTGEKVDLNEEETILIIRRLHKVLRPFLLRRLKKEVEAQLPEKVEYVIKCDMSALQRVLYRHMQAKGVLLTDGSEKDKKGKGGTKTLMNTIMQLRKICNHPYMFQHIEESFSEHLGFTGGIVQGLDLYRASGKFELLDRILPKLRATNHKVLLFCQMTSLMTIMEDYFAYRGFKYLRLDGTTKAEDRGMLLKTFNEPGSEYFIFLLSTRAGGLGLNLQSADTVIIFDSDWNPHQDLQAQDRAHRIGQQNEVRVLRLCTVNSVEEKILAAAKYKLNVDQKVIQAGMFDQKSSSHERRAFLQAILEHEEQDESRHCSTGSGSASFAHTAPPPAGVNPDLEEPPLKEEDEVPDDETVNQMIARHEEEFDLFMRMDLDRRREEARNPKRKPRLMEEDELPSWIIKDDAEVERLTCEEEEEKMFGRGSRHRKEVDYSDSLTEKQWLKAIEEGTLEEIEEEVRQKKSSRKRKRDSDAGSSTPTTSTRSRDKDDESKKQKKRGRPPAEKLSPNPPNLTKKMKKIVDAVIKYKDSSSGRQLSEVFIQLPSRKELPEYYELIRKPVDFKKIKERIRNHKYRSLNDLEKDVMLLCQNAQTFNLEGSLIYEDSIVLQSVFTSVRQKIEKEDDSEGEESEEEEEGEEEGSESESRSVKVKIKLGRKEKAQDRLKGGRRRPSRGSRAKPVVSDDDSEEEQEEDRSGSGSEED

In one assay the test system is H358 cells. In words: High-throughput proliferation (HTP) assay for H358 cells (CellTiter-Glo, 7 days). Type of assay: cell-based. As to conditions: Homo sapiens, NCI-H358, 168 h, read-out: H358 SMARCA2 IC50. The essentials:
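Cells were plated at 1,000 cells/well in RPMI 1640 + 10% HI-FBS + 1% pen/strep on pre-dispensed compound and incubated 7 days at 37 °C, 5% CO2. Viability was read as ATP luminescence with CellTiter-Glo after 30 min at RT. DMSO served as 0% and 10 µM doxorubicin as 100% inhibition for EC50/IC50.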
Turning to `Cn1cnc(C#Cc2cc(C(=O)Nc3cc(F)c(=O)n(CC(F)F)c3)sc2Cl)n1` [Compound 67c], the IC50 was over 10 µM.
`CN(C)C(=O)C#Cc1cc(C(=O)Nc2cc(F)c(=O)n(CC(F)F)c2)sc1Cl` [Compound 71d]: the IC50 turned out to be 4.09 µM.
On the same count and under the same terms, in the case of `O=C(Nc1cc(F)c(=O)n(CC(F)F)c1)c1cc(C#CCn2cnnc2)c(Cl)s1` [Compound 126d] it was over 10 µM.
As to `CNS(=O)(=O)c1cccc(C#Cc2cc(C(=O)Nc3cc(F)c(=O)n(CC(F)F)c3)sc2Cl)c1` [Compound 99c], the IC50 is over 10 µM.
On to `Cc1cc(NC(=O)c2cc(Cl)c(C(F)(F)F)s2)cn(CC(F)F)c1=O` [Compound 82d], for which the IC50 was over 10 µM.
In the case of `N#Cc1cccc(C#Cc2cc(C(=O)Nc3cc(F)c(=O)n(CC(F)F)c3)sc2Cl)c1` [Compound 34c], the IC50 is over 10 µM.
For `O=C(Nc1cc(F)c(=O)n(CC(F)F)c1)c1cc(C#CCn2cccn2)c(Cl)s1` [Compound 123d], the IC50 is over 10 µM.
On to `Cn1cc(C#Cc2cc(C(=O)Nc3cc([N+](=O)[O-])c(=O)n(CC(F)F)c3)sc2C(F)(F)F)cn1` [Compound 128d], for which the IC50 stood at 4.05 µM.
Turning to `O=C1C[C@@H](C#Cc2cc(C(=O)Nc3cc(F)c(=O)n(CC(F)F)c3)sc2Cl)CCN1` [Compound 62d], the IC50 was over 10 µM.
Take `O=C(Nc1ccc(=O)n(CC(F)F)c1)c1cc(Cl)c(C(F)(F)F)s1` [Compound 72c]: the IC50 was over 10 µM.
Turning to `O=C(Nc1cc(F)c(=O)n(CC(F)F)c1)c1cc(C#Cc2ccncn2)c(Cl)s1` [Compound 59c], the IC50 was 2.03 µM.
On the same count and under the same terms, in the case of `CN1CCn2c(C#Cc3cc(C(=O)Nc4cc(F)c(=O)n(CC(F)F)c4)sc3Cl)cnc2C1` [Compound 66c] it was over 10 µM; in that of `O=C(Nc1cc(F)c(=O)n(CC(F)F)c1)c1cc(C#CC2CCCNC2)c(Cl)s1` (stereo not shown) [Compound 108d], over 10 µM; in that of `O=C(Nc1cc(F)c(=O)n(CC(F)F)c1)c1cc(C#CC2CCOC2)c(Cl)s1` (stereo not shown) [Compound 58c], over 10 µM.
Same read-out and setting: the figure for `NCc1nc(C#Cc2cc(C(=O)Nc3cc(F)c(=O)n(CC(F)F)c3)sc2Cl)cs1` [Compound 125c] is over 10 µM; for `O=C(Nc1cc(F)c(=O)n(CC(F)F)c1)c1cc(C#Cc2cccc(Cl)c2)c(Cl)s1` [Compound 56c] it is 9.02 µM.

The target in a further assay is T1, FL-SMARCA2 (full-length human SMARCA2 isoform 1) (Homo sapiens, UniProt P51531).
T1 construct: FLAG tag (YKDDDDK) (C); made in house; host or cells: Sf21 insect cells (baculovirus, pFastBacI)
T1 sequence (P51531 with tags, fused parts or gaps): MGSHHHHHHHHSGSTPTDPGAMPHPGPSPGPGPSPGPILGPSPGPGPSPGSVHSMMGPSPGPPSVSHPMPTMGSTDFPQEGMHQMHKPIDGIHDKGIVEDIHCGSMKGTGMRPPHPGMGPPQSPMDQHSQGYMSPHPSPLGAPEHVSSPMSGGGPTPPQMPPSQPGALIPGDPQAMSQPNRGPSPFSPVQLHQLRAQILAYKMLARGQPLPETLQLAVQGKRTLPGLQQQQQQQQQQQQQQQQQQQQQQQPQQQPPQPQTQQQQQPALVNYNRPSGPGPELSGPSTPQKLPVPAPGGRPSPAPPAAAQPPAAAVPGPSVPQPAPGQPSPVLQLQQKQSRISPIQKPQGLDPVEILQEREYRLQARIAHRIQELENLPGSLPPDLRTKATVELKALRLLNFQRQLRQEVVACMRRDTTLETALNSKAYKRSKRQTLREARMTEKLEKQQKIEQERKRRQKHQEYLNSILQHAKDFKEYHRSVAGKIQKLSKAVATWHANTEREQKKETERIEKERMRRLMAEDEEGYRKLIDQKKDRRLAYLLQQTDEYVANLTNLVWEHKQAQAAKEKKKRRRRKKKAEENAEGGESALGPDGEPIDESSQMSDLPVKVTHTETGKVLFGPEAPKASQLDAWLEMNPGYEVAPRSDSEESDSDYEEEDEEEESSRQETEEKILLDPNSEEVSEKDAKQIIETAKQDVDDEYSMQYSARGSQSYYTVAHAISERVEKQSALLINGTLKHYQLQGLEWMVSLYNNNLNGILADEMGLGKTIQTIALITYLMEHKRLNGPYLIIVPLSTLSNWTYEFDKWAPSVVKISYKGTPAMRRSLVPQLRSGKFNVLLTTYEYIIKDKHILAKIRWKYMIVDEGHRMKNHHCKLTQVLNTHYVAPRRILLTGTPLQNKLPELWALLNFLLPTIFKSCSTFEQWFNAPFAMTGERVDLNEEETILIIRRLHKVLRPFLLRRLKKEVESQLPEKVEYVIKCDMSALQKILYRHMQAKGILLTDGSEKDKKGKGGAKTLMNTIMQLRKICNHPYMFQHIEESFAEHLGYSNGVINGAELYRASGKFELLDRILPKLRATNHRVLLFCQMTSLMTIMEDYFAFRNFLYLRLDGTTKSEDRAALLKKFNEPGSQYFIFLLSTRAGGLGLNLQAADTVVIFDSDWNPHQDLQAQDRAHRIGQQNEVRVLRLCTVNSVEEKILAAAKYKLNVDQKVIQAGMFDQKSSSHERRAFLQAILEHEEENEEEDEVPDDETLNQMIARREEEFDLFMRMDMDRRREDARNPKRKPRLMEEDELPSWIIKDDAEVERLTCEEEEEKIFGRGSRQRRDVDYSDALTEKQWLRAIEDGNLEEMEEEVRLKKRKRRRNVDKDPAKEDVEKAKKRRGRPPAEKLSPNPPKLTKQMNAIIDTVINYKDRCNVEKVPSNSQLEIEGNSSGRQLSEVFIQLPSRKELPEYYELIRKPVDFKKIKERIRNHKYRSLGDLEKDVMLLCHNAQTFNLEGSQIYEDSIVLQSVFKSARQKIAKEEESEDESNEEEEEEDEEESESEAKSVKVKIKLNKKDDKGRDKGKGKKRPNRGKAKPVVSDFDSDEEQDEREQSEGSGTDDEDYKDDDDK
In words: SMARCA2 ATPase activity assay (ADP-Glo, chicken mononucleosome substrate). Type of assay: biochemical. As to conditions: Table 3c.1; ATPase assay, enzyme 5 nM, ATP 250 uM, chicken mononucleosome 10 nM, 30 min preincubation.
`Cn1cnc(C#Cc2cc(C(=O)Nc3cc(F)c(=O)n(CC(F)F)c3)sc2Cl)n1` [Compound 67c] showed an IC50 of 0.371 µM.
`CNS(=O)(=O)c1cccc(C#Cc2cc(C(=O)Nc3cc(F)c(=O)n(CC(F)F)c3)sc2Cl)c1` [Compound 99c] gave an IC50 of 0.0406 µM.
As for `N#Cc1cccc(C#Cc2cc(C(=O)Nc3cc(F)c(=O)n(CC(F)F)c3)sc2Cl)c1` [Compound 34c], the IC50 is 0.0938 µM.
Still for that read-out and setting: in the case of `O=C(Nc1ccc(=O)n(CC(F)F)c1)c1cc(Cl)c(C(F)(F)F)s1` [Compound 72c] it was 0.21 µM; in that of `O=C(Nc1cc(F)c(=O)n(CC(F)F)c1)c1cc(C#Cc2ccncn2)c(Cl)s1` [Compound 59c], 0.132 µM.
The molecule `CN1CCn2c(C#Cc3cc(C(=O)Nc4cc(F)c(=O)n(CC(F)F)c4)sc3Cl)cnc2C1` [Compound 66c] came in with an IC50 of 0.236 µM.
`O=C(Nc1cc(F)c(=O)n(CC(F)F)c1)c1cc(C#CC2CCOC2)c(Cl)s1` (stereo not shown) [Compound 58c] registered an IC50 of 0.0447 µM.
Molecule `NCc1nc(C#Cc2cc(C(=O)Nc3cc(F)c(=O)n(CC(F)F)c3)sc2Cl)cs1` [Compound 125c] yielded an IC50 of 0.0522 µM.
The same measure, in the same setting: in the case of `O=C(Nc1cc(F)c(=O)n(CC(F)F)c1)c1cc(C#Cc2cccc(Cl)c2)c(Cl)s1` [Compound 56c] it was 0.297 µM.

Still in this assay, the particulars now being: Table 3d.1; ATPase assay, enzyme 5 nM, ATP 250 uM, chicken mononucleosome 10 nM, 30 min preincubation; read-out: FL-SMARCA2 IC>50.
On to `CN(C)C(=O)C#Cc1cc(C(=O)Nc2cc(F)c(=O)n(CC(F)F)c2)sc1Cl` [Compound 71d], for which the IC50 came out at 0.536 µM.
Regarding `O=C(Nc1cc(F)c(=O)n(CC(F)F)c1)c1cc(C#CCn2cnnc2)c(Cl)s1` [Compound 126d], the IC50 was determined as 1.58 µM.
For the molecule `Cc1cc(NC(=O)c2cc(Cl)c(C(F)(F)F)s2)cn(CC(F)F)c1=O` [Compound 82d], the IC50 amounted to 1.36 µM.
Still for that read-out and setting: in the case of `O=C(Nc1cc(F)c(=O)n(CC(F)F)c1)c1cc(C#CCn2cccn2)c(Cl)s1` [Compound 123d] it was 0.52 µM.
Still for that read-out and setting: in the case of `Cn1cc(C#Cc2cc(C(=O)Nc3cc([N+](=O)[O-])c(=O)n(CC(F)F)c3)sc2C(F)(F)F)cn1` [Compound 128d] it was over 50 µM.
Same read-out and setting: the figure for `O=C1C[C@@H](C#Cc2cc(C(=O)Nc3cc(F)c(=O)n(CC(F)F)c3)sc2Cl)CCN1` [Compound 62d] is 0.0225 µM; for `O=C(Nc1cc(F)c(=O)n(CC(F)F)c1)c1cc(C#CC2CCCNC2)c(Cl)s1` (stereo not shown) [Compound 108d] it is 0.542 µM.

For a further assay, the system named is A549 cells. In words: High-throughput proliferation (HTP) assay for A549 cells (CellTiter-Glo, 7 days). Format: cell-based. Particulars: Homo sapiens, 168 h, read-out: A549 SMARCA2 IC50. The essentials: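 Seven-day growth of A549 (62.5 cells/well, F12K with 10% HI-FBS, 37° C.) with compound, read by CellTiter-Glo ATP luminescence. Percent inhibition scaled between DMSO wells and 10 μM Doxorubicin wells, then fitted for EC50 and IC50.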
In the case of `Cn1cnc(C#Cc2cc(C(=O)Nc3cc(F)c(=O)n(CC(F)F)c3)sc2Cl)n1` [Compound 67c], the IC50 was over 10 µM.
Turning to `CN(C)C(=O)C#Cc1cc(C(=O)Nc2cc(F)c(=O)n(CC(F)F)c2)sc1Cl` [Compound 71d], the IC50 was 2.38 µM.
Regarding `O=C(Nc1cc(F)c(=O)n(CC(F)F)c1)c1cc(C#CCn2cnnc2)c(Cl)s1` [Compound 126d], the IC50 was over 10 µM.
`CNS(=O)(=O)c1cccc(C#Cc2cc(C(=O)Nc3cc(F)c(=O)n(CC(F)F)c3)sc2Cl)c1` [Compound 99c]: the IC50 came to 1.7 µM.
Turning to `Cc1cc(NC(=O)c2cc(Cl)c(C(F)(F)F)s2)cn(CC(F)F)c1=O` [Compound 82d], the IC50 stood at 4.73 µM.
Turning to `N#Cc1cccc(C#Cc2cc(C(=O)Nc3cc(F)c(=O)n(CC(F)F)c3)sc2Cl)c1` [Compound 34c], the IC50 worked out at 1.46 µM.
As for `O=C(Nc1cc(F)c(=O)n(CC(F)F)c1)c1cc(C#CCn2cccn2)c(Cl)s1` [Compound 123d], the IC50 is over 10 µM.
Same read-out and setting: in the case of `Cn1cc(C#Cc2cc(C(=O)Nc3cc([N+](=O)[O-])c(=O)n(CC(F)F)c3)sc2C(F)(F)F)cn1` [Compound 128d] it was 3.24 µM; in that of `O=C1C[C@@H](C#Cc2cc(C(=O)Nc3cc(F)c(=O)n(CC(F)F)c3)sc2Cl)CCN1` [Compound 62d], over 10 µM.
For the molecule `O=C(Nc1ccc(=O)n(CC(F)F)c1)c1cc(Cl)c(C(F)(F)F)s1` [Compound 72c], the IC50 worked out at 4.5 µM.
Still for that read-out and setting: the figure for `O=C(Nc1cc(F)c(=O)n(CC(F)F)c1)c1cc(C#Cc2ccncn2)c(Cl)s1` [Compound 59c] is 1.19 µM; for `CN1CCn2c(C#Cc3cc(C(=O)Nc4cc(F)c(=O)n(CC(F)F)c4)sc3Cl)cnc2C1` [Compound 66c] it is over 10 µM.
Turning to `O=C(Nc1cc(F)c(=O)n(CC(F)F)c1)c1cc(C#CC2CCCNC2)c(Cl)s1` (stereo not shown) [Compound 108d], the IC50 was over 10 µM.
Regarding `O=C(Nc1cc(F)c(=O)n(CC(F)F)c1)c1cc(C#CC2CCOC2)c(Cl)s1` (stereo not shown) [Compound 58c], the IC50 was 1.5 µM.
The same measure, in the same setting: in the case of `NCc1nc(C#Cc2cc(C(=O)Nc3cc(F)c(=O)n(CC(F)F)c3)sc2Cl)cs1` [Compound 125c] it was 4.46 µM; in that of `O=C(Nc1cc(F)c(=O)n(CC(F)F)c1)c1cc(C#Cc2cccc(Cl)c2)c(Cl)s1` [Compound 56c], 4.4 µM.

The next assay concerns the target FL-SMARCA4 (Homo sapiens, UniProt P51532). Nature of the assay: SMARCA4 ATPase activity assay (ADP-Glo, chicken mononucleosome substrate). As to conditions: FL-SMARCA4 IC50.
In the case of `CN(C)C(=O)C#Cc1cc(C(=O)Nc2cc(F)c(=O)n(CC(F)F)c2)sc1Cl` [Compound 71d], the IC50 turned out to be 1.26 µM.
Consider `O=C(Nc1cc(F)c(=O)n(CC(F)F)c1)c1cc(C#CCn2cnnc2)c(Cl)s1` [Compound 126d], for which the IC50 came to 4.37 µM.
The molecule `Cc1cc(NC(=O)c2cc(Cl)c(C(F)(F)F)s2)cn(CC(F)F)c1=O` [Compound 82d] displayed an IC50 of 8.09 µM.
The same measure, in the same setting: in the case of `O=C(Nc1cc(F)c(=O)n(CC(F)F)c1)c1cc(C#CCn2cccn2)c(Cl)s1` [Compound 123d] it was 1.58 µM; in that of `Cn1cc(C#Cc2cc(C(=O)Nc3cc([N+](=O)[O-])c(=O)n(CC(F)F)c3)sc2C(F)(F)F)cn1` [Compound 128d], over 50 µM; in that of `O=C1C[C@@H](C#Cc2cc(C(=O)Nc3cc(F)c(=O)n(CC(F)F)c3)sc2Cl)CCN1` [Compound 62d], 0.0571 µM.
`O=C(Nc1cc(F)c(=O)n(CC(F)F)c1)c1cc(C#CC2CCCNC2)c(Cl)s1` (stereo not shown) [Compound 108d] showed an IC50 of 1.78 µM.

The same assay, now with this note: FL-SMARCA4 IC>50, Table 3c.2; ATPase assay, enzyme 5 nM, ATP 250 uM, chicken mononucleosome 10 nM, 30 min preincubation.
Molecule `Cn1cnc(C#Cc2cc(C(=O)Nc3cc(F)c(=O)n(CC(F)F)c3)sc2Cl)n1` [Compound 67c] returned an IC50 of 0.807 µM.
`CNS(=O)(=O)c1cccc(C#Cc2cc(C(=O)Nc3cc(F)c(=O)n(CC(F)F)c3)sc2Cl)c1` [Compound 99c] returned an IC50 of 0.0801 µM.
On to `N#Cc1cccc(C#Cc2cc(C(=O)Nc3cc(F)c(=O)n(CC(F)F)c3)sc2Cl)c1` [Compound 34c], for which the IC50 amounted to 0.233 µM.
`O=C(Nc1ccc(=O)n(CC(F)F)c1)c1cc(Cl)c(C(F)(F)F)s1` [Compound 72c] came in with an IC50 of 1.55 µM.
For `O=C(Nc1cc(F)c(=O)n(CC(F)F)c1)c1cc(C#Cc2ccncn2)c(Cl)s1` [Compound 59c], the IC50 was determined as 0.379 µM.
The molecule `CN1CCn2c(C#Cc3cc(C(=O)Nc4cc(F)c(=O)n(CC(F)F)c4)sc3Cl)cnc2C1` [Compound 66c] displayed an IC50 of 0.772 µM.
On the same count and under the same terms, the figure for `O=C(Nc1cc(F)c(=O)n(CC(F)F)c1)c1cc(C#CC2CCOC2)c(Cl)s1` (stereo not shown) [Compound 58c] is 0.178 µM; for `NCc1nc(C#Cc2cc(C(=O)Nc3cc(F)c(=O)n(CC(F)F)c3)sc2Cl)cs1` [Compound 125c] it is 0.166 µM; for `O=C(Nc1cc(F)c(=O)n(CC(F)F)c1)c1cc(C#Cc2cccc(Cl)c2)c(Cl)s1` [Compound 56c] it is 1.04 µM.
